“Also recorded” adds a separate entry of the source.
Assays:
[1] = stability of TCC in body cleansing composition (precipitate/crystals on storage); format: physicochemical; details: for Comments (precipitate/crystals of TCC): 0.15% TCC in body cleansing composition
From the text: Further work on the usefulness of this invention may be seen in the stability data of Example 5. TCC at 0.15% was incorporated in a body cleansing composition of (which may also include the types described above). using Promidium CO alone and in combination with Laureth-7.

bacteria = experiment: antibacterial efficacy by cup scrub method on humans against the composition without TCC; format: in vivo
Procedure: Using the formulation of Example 1 or Example 2 but with varying amounts of TCC, the amide wherein R is cocoyl, p is 2 and n is 1, and the alcohol wherein R′ is lauryl and q is 7, antibacterial efficacy is measured using a cup scrub method on humans against the composition without TCC.

Compound | Comments (precipitate/crystals of TCC) ([1]; Promidium CO 0.675%, Laureth-7 0.675%) | Comments (precipitate/crystals of TCC) ([1]; Promidium CO 3.0%, Laureth-7 0.0%) | time for which no precipitate or crystals were observed ([1]; body cleansing composition with combination of Promidium CO and Laureth-7) [weeks] | log reduction of bacteria (bacteria; TCC in the compositions, measured against a composition without TCC) | effect of presence on antibacterial efficacy (bacteria; presence of Promidium Co and/or laureth-7 in the composition)
O=C(Nc1ccc(Cl)cc1)Nc1ccc(Cl)c(Cl)c1 [TCC, 3,4,4′-trichlorocarbanilide] | no precipitate or crystals were observed; also recorded: No Precipitate or crystals even | precipitate/crystals of TCC were observed at the bottom of the container after 4-5 weeks; also recorded: Precipitate/Crystals in 4-5 Weeks | ≥ 13 | greater than 1 log | 
PPG-2 hydroxyethyl cocoamide [Promidium CO] |  |  |  |  | does not significantly affect antibacterial efficacy
